# Tested on: RS4;11 cells
# Assay: RS4;11 cell proliferation assay (CellTiter-Glo)
# Assay type: cell-based
# Details: Homo sapiens, 48 h compound treatment, read-out: RS4;11 (nM) CTG IC50
# Description: Cell proliferation was measured using the CellTiter-Glo@ Luminescent Cell Viability Assay. The assay involved the addition of a single reagent (CellTiter-Glo® Reagent) directly to cells cultured in serum-supplemented medium. RS4;11 (ATC, CRL-1873) cells were cultured according to ATCC recommendations and were seeded at 50,000 cells per well. NCI-H1963 cells (ATCC CRL-5982) were cultured according to ATCC recommendations and seeded at 12,000 cells per well.
# Each compound evaluated was prepared as a DMSO stock solution (10 mM). Compounds were tested in duplicate on each plate, with a 10-point serial dilution curve (1:3 dilution). Compound treatment (1.0 μL) was added from the compound dilution plate to the cell plate. The highest compound concentration was 10 μM (final), with a 0.1% final DMSO concentration. Plates were then incubated at 37° C., 5% CO2. After 48 h of compound treatment for RS4;11 or 72 h for NCI-H1963, cell plates were equilibrated at rt for approximately 30 mins. An equi-volume amount of CellTiter-Glo@ Reagent (40 μL) was added to each well. Plates were mixed for 2 mins on an orbital shaker to induce cell lysis and then incubated at RT for 10 mins to stabilize the luminescent signal. Luminescence was recorded using a Envision plate reader according to CellTiter-Glo protocol. IC50 of each compound was calculated using GraphPad Prism by nonlinear regression analysis.
row,Compound,IC50 [nM]
1,"CC1(C)CCC(CN2CCN(c3ccc(C(=O)NS(=O)(=O)c4ccc(NCC5CC6(COC6)C5)c([N+](=O)[O-])c4)c(Oc4cnc5[nH]ccc5c4)c3)CC2)=C(C23CC(Cl)(C2)C3)C1 [Example 2, 2-(1H-pyrrolo[2,3-b]pyridin-5-yl-oxy)-N-(4-(2-oxaspiro[3.3]heptan-6-yl-methylamino)-3-nitrophenylsulfonyl)-4-(4-((2-(3-chlorobicyclo[1.1.1]pentan-1-yl)-4,4-dimethylcyclohex-1en-yl)methyl)piperazin-1-yl)benzamide]",< 100
2,"CC1(C)CCC(CN2CCN(c3ccc(C(=O)NS(=O)(=O)c4ccc(NCCN5CCC6(CCOC6)CC5)c([N+](=O)[O-])c4)c(Oc4cnc5[nH]ccc5c4)c3)CC2)=C(C23CC(Cl)(C2)C3)C1 [Example 3, 2-((1H-pyrrolo[2,3-b]pyridin-5-yl)oxy)-N-((4-((2-(2-oxa-8-azaspiro[4.5]decan-8-yl)ethyl)amino)-3-nitrophenyl)sulfonyl)-4-(4-((2-(3-chlorobicyclo[1.1.1]pentan-1-yl)-4,4-dimethylcyclohex-1-en-1-yl)methyl)piperazin-1-yl)benzamide]",100 to 1000
3,"CC1(C)CCC(CN2CCN(c3ccc(C(=O)NS(=O)(=O)c4ccc(NCCN5CC6(CCOCC6)C5)c([N+](=O)[O-])c4)c(Oc4cnc5[nH]ccc5c4)c3)CC2)=C(C23CC(Cl)(C2)C3)C1 [Example 4, 2-(1H-pyrrolo[2,3-b]pyridin-5-yloxy)-N-(4-(2-(7-oxa-2-azaspiro[3.5]nonan-2-yl)ethylamino)-3-nitrophenylsulfonyl)-4-(4-((2-(3-chlorobicyclo[1.1.1]pentan-1-yl)-4,4-dimethylcyclohex-1-enyl)methyl)piperazin-1-yl)benzamide]",100 to 1000
4,"CC1(C)CCC(CN2CCN(c3ccc(C(=O)NS(=O)(=O)c4ccc(NCC5CC6(CCOCC6)C5)c([N+](=O)[O-])c4)c(Oc4cnc5[nH]ccc5c4)c3)CC2)=C(C23CC(Cl)(C2)C3)C1 [Example 5, 2-((1H-pyrrolo[2,3-b]pyridin-5-yl)oxy)-N-((4-(((7-oxaspiro[3.5]nonan-2-yl)methyl)amino)-3-nitrophenyl)sulfonyl)-4-(4-((2-(3-chlorobicyclo[1.1.1]pentan-1-yl)-4,4-dimethylcyclohex-1-en-1-yl)methyl)piperazin-1-yl)benzamide]",100 to 1000
5,"CC1(C)CCC(CN2CCN(c3ccc(C(=O)NS(=O)(=O)c4ccc(OC5COC6(CC6)C5)c([N+](=O)[O-])c4)c(Oc4cnc5[nH]ccc5c4)c3)CC2)=C(C23CC(Cl)(C2)C3)C1 (stereo not shown) [Example 6, 2-((1H-pyrrolo[2,3-b]pyridin-5-yl)oxy)-N-((4-((4-oxaspiro[2.4]heptan-6-yl)oxy)-3-nitrophenyl)sulfonyl)-4-(4-((2-(3-chlorobicyclo[1.1.1]pentan-1-yl)-4,4-dimethylcyclohex-1-en-1-yl)methyl)piperazin-1-yl)benzamide]",> 1000
6,"CC1(C)CCC(CN2CCN(c3ccc(C(=O)NS(=O)(=O)c4ccc(OCCN5CC6(COC6)C5)c([N+](=O)[O-])c4)c(Oc4cnc5[nH]ccc5c4)c3)CC2)=C(C23CC(Cl)(C2)C3)C1 [Example 7, 2-(1H-pyrrolo[2,3-b]pyridin-5-yloxy)-N-(4-(2-(2-oxa-6-azaspiro[3.3]heptan-6-yl)ethoxy)-3-nitrophenylsulfonyl)-4-(4-((2-(3-chlorobicyclo[0.1.1]pentan-1-yl)-4,4-dimethylcyclohex-1-enyl)methyl)piperazin-1-yl)benzamide]",> 1000
7,"CC1(C)CCC(CN2CCN(c3ccc(C(=O)NS(=O)(=O)c4ccc(OCC5CC6(COC6)C5)c([N+](=O)[O-])c4)c(Oc4cnc5[nH]ccc5c4)c3)CC2)=C(C23CC(Cl)(C2)C3)C1 [Example 8, 2-(1H-pyrrolo[2,3-b]pyridin-5-yloxy)-N-(4-(2-oxaspiro[3.3]heptan-6-ylmethoxy)-3-nitrophenylsulfonyl)-4-(4-((2-(3-chlorobicyclo[1.1.1]pentan-1-yl)-4,4-dimethylcyclohex-1-enyl)methyl)piperazin-1-yl)benzamide]",100 to 1000
8,"CN1CCC(CNc2ccc(S(=O)(=O)NC(=O)c3ccc(N4CCN(CC5=C(C67CC(C)(C6)C7)CC(C)(C)CC5)CC4)cc3Oc3cnc4[nH]ccc4c3)cc2[N+](=O)[O-])CC1 [Example 12, 2-((1H-pyrrolo[2,3-b]pyridin-5-yl)oxy)-4-(4-((4,4-dimethyl-2-(3-methylbicyclo[1.1.1]pentan-1-yl)cyclohex-1-en-1-yl)methyl)piperazin-1-yl)-N-((4-(((1-methylpiperidin-4-yl)methyl)amino)-3-nitrophenyl)sulfonyl)benzamide]",< 100
9,"CN(C)[C@H]1CC[C@H](Nc2ccc(S(=O)(=O)NC(=O)c3ccc(N4CCN(CC5=C(C67CC(C)(C6)C7)CC(C)(C)CC5)CC4)cc3Oc3cnc4[nH]ccc4c3)cc2[N+](=O)[O-])CC1 [Example 14, 2-((1H-pyrrolo[2,3-b]pyridin-5-yl)oxy)-4-(4-((4,4-dimethyl-2-(3-methylbicyclo[1.1.1]pentan-1-yl)cyclohex-1-en-1-yl)methyl)piperazin-1-yl)-N-((4-(((1r,4r)-4-(dimethylamino)cyclohexyl)amino)-3-nitrophenyl)sulfonyl)benzamide]",< 100
10,"CC1(C)CCC(CN2CCN(c3ccc(C(=O)NS(=O)(=O)c4ccc(NCCN5CCOCC5)c([N+](=O)[O-])c4)c(Oc4cnc5[nH]ccc5c4)c3)CC2)=C(C23CC(C)(C2)C3)C1 [Example 21, 2-(1H-pyrrolo[2,3-b]pyridin-5-yloxy)-4-(4-((4,4-dimethyl-2-(3-methylbicyclo[1.1.1]pentan-1-yl)cyclohex-1-enyl)methyl)piperazin-1-yl)-N-(4-(2-morpholinoethylamino)-3-nitrophenylsulfonyl)benzamide]",100 to 1000
11,"CC1(C)CCC(CN2CCN(c3ccc(C(=O)NS(=O)(=O)c4ccc(OCC5CCOCC5)c([N+](=O)[O-])c4)c(Oc4cnc5[nH]ccc5c4)c3)CC2)=C(C23CC(C)(C2)C3)C1 [Example 22, 2-(1H-pyrrolo[2,3-b]pyridin-5-yloxy)-4-(4-((4,4-dimethyl-2-(3-methylbicyclo[1.1.1]pentan-1-yl)cyclohex-1-enyl)methyl)piperazin-1-yl)-N-(3-nitro-4-((tetrahydro-2H-pyran-4-yl)methoxy)phenylsulfonyl)benzamide]",< 100
12,"CCC12CC(C3=C(CN4CCN(c5ccc(C(=O)NS(=O)(=O)c6ccc(NCC7(F)CCN(C)CC7)c([N+](=O)[O-])c6)c(Oc6cnc7[nH]ccc7c6)c5)CC4)CCC(C)(C)C3)(C1)C2 [Example 24, 2-(1H-pyrrolo[2,3-b]pyridin-5-yloxy)-4-(4-((2-(3-ethylbicyclo[1.1.1]pentan-1l-yl)-4,4-dimethylcyclohex-1l-enyl)methyl)piperazin-1-yl)-N-(4-((4-fluoro-1l-methylpiperidin-4-yl)methylamino)-3-nitrophenylsulfonyl)benzamide]",< 100
13,"CN1CCC(F)(CNc2ccc(S(=O)(=O)NC(=O)c3ccc(N4CCN(CC5=C(C67CC(C(F)(F)F)(C6)C7)CC(C)(C)CC5)CC4)cc3Oc3cnc4[nH]ccc4c3)cc2[N+](=O)[O-])CC1 [Example 29, 2-((1H-pyrrolo[2,3-b]pyridin-5-yl)oxy)-4-(4-((4,4-dimethyl-2-(3-(trifluoromethyl)bicyclo[1.1.1]pentan-1-yl)cyclohex-1-en-1-yl)methyl)piperazin-1-yl)-N-((4-(((4-fluoro-1-methylpiperidin-4-yl)methyl)amino)-3-nitrophenyl)sulfonyl)benzamide]",< 100
14,"CC1(C)CCC(CN2CCN(c3ccc(C(=O)NS(=O)(=O)c4ccc(NCC5CC6(CCOCC6)C5)c([N+](=O)[O-])c4)c(Oc4cnc5[nH]ccc5c4)c3)CC2)=C(C23CC(C(F)F)(C2)C3)C1 [Example 37, 2-((1H-pyrrolo[2,3-b]pyridin-5-yl)oxy)-N-((4-(((7-oxaspiro[3.5]nonan-2-yl)methyl)amino)-3-nitrophenyl)sulfonyl)-4-(4-((2-(3-(difluoromethyl)bicyclo[1.1.1]pentan-1-yl)-4,4-dimethylcyclohex-1-en-1-yl)methyl)piperazin-1-yl)benzamide]",< 100
15,"O=C(NS(=O)(=O)c1ccc(NCC2CCOCC2)c([N+](=O)[O-])c1)c1ccc(N2CCN(CC3=C(C45CC(C(F)F)(C4)C5)CC4(CCC4)CC3)CC2)cc1Oc1cnc2[nH]ccc2c1 [Example 42, 2-((1H-pyrrolo[2,3-b]pyridin-5-yl)oxy)-4-(4-((6-(3-(difluoromethyl)bicyclo[1.1.1]pentan-1-yl)spiro[3.5]non-6-en-7-yl)methyl)piperazin-1-yl)-N-((3-nitro-4-(((tetrahydro-2H-pyran-4-yl)methyl)amino)phenyl)sulfonyl)benzamide]",< 100
16,"CC12CC(C3=C(CN4CCN(c5ccc(C(=O)NS(=O)(=O)c6ccc(NCC7(F)CCOCC7)c([N+](=O)[O-])c6)c(Oc6cnc7[nH]ccc7c6)c5)CC4)CCC4(CCC4)C3)(C1)C2 [Example 43, 2-((1H-pyrrolo[2,3-b]pyridin-5-yl)oxy)-N-((4-(((4-fluorotetrahydro-2H-pyran-4-yl)methyl)amino)-3-nitrophenyl)sulfonyl)-4-(4-((6-(3-methylbicyclo[1.1.1]pentan-1-yl)spiro[3.5]non-6-en-7-yl)methyl)piperazin-1-yl)benzamide]",100 to 1000

# — patent publication US11344546B2, “Benzamide compounds” (Recurium IP Holdings, LLC, priority 2018, dated 2022)
